Values of other authors in PMC6422671 (British Journal of Clinical Pharmacology, 2019).

Conditions: preclinical study in dogs; cited from earlier work

With `C[C@@H](N)c1cc(Cl)ccc1Cn1c(=S)[nH]c(=O)c2[nH]ccc21` [AZD4831] as the molecule, how does the “dose at which no adverse effects were observed” value read?
Its value is 20 mg kg^−1 per day.
